According to patent US8207172B2 (Bayer Intellectual Property GmbH, priority 2004, dated 2012):

Key:
[1] = system: BT474 (human breast carcinoma); assay: In vitro tumor cell proliferation assay (Cell Titer-Glo luminescent cell viability), BT474; assay type: cell-based; settings: BT-474, 72 h, BT474 cells, 72 hours of drug exposure, ATP luminescence readout, read-out: IC50, anti-proliferative activity (inhibition of cell proliferation)
Method in brief: (§1)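 A431 or BT474 cells were exposed 72 h at 37°C to serially diluted compounds (final 100 μM down to 64 pM, 0.1% DMSO). Viable cells were read by ATP luminescence (CellTiter-Glo) and IC50 values derived.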

[2] = system: A431 cells (human epidermoid carcinoma); assay: In vitro tumor cell proliferation assay (Cell Titer-Glo luminescent cell viability), A431; assay type: cell-based; settings: A-431, 72 h, 72 hours of drug exposure, ATP luminescence readout, read-out: IC50, anti-proliferative activity (inhibition of cell proliferation)
Method in brief: as §1

Compound	IC50 [1] [nM]	IC50 [2] [nM]
OCCNCCn1cc2c(n1)CCc1c-2sc2ncnc(Nc3ccc4c(cnn4Cc4cccc(F)c4)c3)c12 [Example 281, 2-{[2-(6-{[1-(3-fluorobenzyl)-1H-indazol-5-yl]amino}-4,5-dihydro-2H-pyrimido[5′,4′:4,5]thieno[2,3-e]indazol-2-yl)ethyl]amino}ethanol]	≤ 1000	≤ 5000
CCN1CCN(CCn2ncc3c2CCc2c-3sc3ncnc(Nc4ccc5c(cnn5Cc5cccc(F)c5)c4)c23)CC1 [Example 294, 3-[2-(4-ethylpiperazin-1-yl)ethyl]-N-[1-(3-fluorobenzyl)-1H-indazol-5-yl]-4,5-dihydro-3H-pyrimido[5′,4′:4,5]thieno[2,3-e]indazol-6-amine]	≤ 1000	≤ 50000
